Experimental data from patent US9850227B2 (YUHAN CORPORATION, priority 2011, dated 2017).
Where a name gives a salt, the structure may show the parent alone.

Molecular target: T1, human 5-HT4(a) (Homo sapiens, UniProt Q13639)
T1 construct: host or cells: GeneBIAzer HTR4-CRE-bla CHO-K1 cells
Experiment: Evaluation of agonistic activity in CHO-K1 cells expressing human 5-HT4(a) (GeneBIAzer HTR4-CRE-bla CHO-K1 cells, beta-lactamase fluorescence ratio, EC50 from 8 concentrations)
Format: cell-based
In short: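 HTR4-CRE-bla CHO-K1 cells (10^4 per well, overnight in 1% FBS medium) exposed to compound for 5 h, then beta-lactamase substrate 2 h in the dark. Fluorescence ratio at 465/535 nm after 410 nm excitation; EC50 by non-linear regression over 8 concentrations.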

T1 sequence (Q13639 1-387 isoform Q13639-2): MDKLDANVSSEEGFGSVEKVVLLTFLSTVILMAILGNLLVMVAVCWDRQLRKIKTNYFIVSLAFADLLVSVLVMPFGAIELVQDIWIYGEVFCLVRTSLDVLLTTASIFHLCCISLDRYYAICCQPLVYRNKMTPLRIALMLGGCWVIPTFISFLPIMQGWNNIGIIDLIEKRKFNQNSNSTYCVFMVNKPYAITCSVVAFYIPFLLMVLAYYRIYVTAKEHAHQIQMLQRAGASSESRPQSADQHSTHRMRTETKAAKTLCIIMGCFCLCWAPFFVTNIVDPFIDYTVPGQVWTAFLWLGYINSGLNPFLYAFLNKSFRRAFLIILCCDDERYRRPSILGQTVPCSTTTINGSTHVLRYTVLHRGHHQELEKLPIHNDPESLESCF

Row | Structure (SMILES) | EC50
1 | CCCc1cc(N2CCC[C@@H](NCC3CCCC3)C2)nc(Nc2ccc(C)c(C#N)c2)n1 [Example 218, (R)-5-{4-[3-(cyclopentylmethylamino)piperidin-1-yl]-6-propylpyrimidin-2-ylamino}-2-methylbenzonitrile] | 0.016 nM
2 | CCCc1cc(N2CCC[C@@H](NCc3ccc(O)cc3)C2)nc(Nc2ccc(C)c(C#N)c2)n1 [Example 219, (R)-5-{4-[3-(4-hydroxybenzylamino)piperidin-1-yl]-6-propylpyrimidin-2-ylamino}-2-methylbenzonitrile] | 0.01 nM
3 | CCCc1cc(N2CCC[C@@H](NC(C)=O)C2)nc(Nc2ccc(C)c(C#N)c2)n1 [Example 220, (R)—N-{1-[2-(3-cyano-4-methylphenylamino)-6-propylpyrimidin-4-yl]piperidin-3-yl}acetamide] | 0.0082 nM
4 | CCCc1cc(N2CCC[C@@H](N)C2)nc(Nc2cccc(C#N)c2)n1 [Example 221, (R)-3-[4-(3-aminopiperidin-1-yl)-6-propylpyrimidin-2-ylamino]benzonitrile dihydrochloride] | 0.122 nM
5 | CCCc1cc(N2CCC[C@@H](N)C2)nc(Nc2ccc(F)c(C#N)c2)n1 [Example 222, (R)-5-[4-(3-aminopiperidin-1-yl)-6-propylpyrimidin-2-ylamino]-2-fluorobenzonitrile dihydrochloride] | 0.056 nM
6 | CCCN[C@@H]1CCCN(c2cc(CCC)nc(Nc3cccc(C#N)c3)n2)C1 [Example 223, (R)-3-{4-[3-(propylamino)piperidin-1-yl]-6-propylpyrimidin-2-ylamino}benzonitrile] | 0.045 nM
7 | CCCc1cc(N2CCC[C@@H](NCC3CC3)C2)nc(Nc2cccc(C#N)c2)n1 [Example 224, (R)-3-{4-[3-(cyclopropylmethylamino)piperidin-1-yl]-6-propylpyrimidin-2-ylamino}benzonitrile] | 0.07 nM
8 | CCCN[C@@H]1CCCN(c2cc(CCC)nc(Nc3ccc(F)c(C#N)c3)n2)C1 [Example 225, (R)-2-fluoro-5-{4-[3-(propylamino)piperidin-1-yl]-6-propylpyrimidin-2-ylamino}benzonitrile] | 0.021 nM
9 | CCCc1cc(N2CCC[C@@H](NCC3CC3)C2)nc(Nc2ccc(F)c(C#N)c2)n1 [Example 226, (R)-5-{4-[3-(cyclopropylmethylamino)piperidin-1-yl]-6-propylpyrimidin-2-ylamino}-2-fluorobenzonitrile] | 0.071 nM
10 | CCCc1cc(N2CCC[C@@H](NCC3CC3)C2)nc(Nc2ccc(F)c(N)c2)n1 [Example 227, (R)—N^1-{4-[3-(cyclopropylmethylamino)piperidin-1-yl]-6-propylpyrimidin-2-yl}-4-fluorobenzene-1,3-diamine] | 0.017 nM
11 | CCCc1cc(N2CCC[C@@H](NCC3CC3)C2)nc(Nc2ccc(N)c([N+](=O)[O-])c2)n1 [Example 228, (R)—N^1-{4-[3-(cyclopropylmethylamino)piperidin-1-yl]-6-propylpyrimidin-2-yl}-3-nitrobenzene-1,4-diamine] | 0.0035 nM
12 | CCCc1cc(N2CCC[C@@H](NCC3CC3)C2)nc(Nc2cc(N)cc(C#N)c2)n1 [Example 229, (R)-3-amino-5-{4-[3-(cyclopropylmethylamino)piperidin-1-yl]-6-propylpyrimidin-2-ylamino}benzonitrile] | 0.0041 nM
13 | CCCc1cc(N2CCC[C@@H](NCC3CC3)C2)nc(Nc2ccc(N)c(C(F)(F)F)c2)n1 [Example 230, (R)—N^1-{4-[3-(cyclopropylmethylamino)piperidin-1-yl]-6-propylpyrimidin-2-yl}-3-(trifluoromethyl)benzene-1,4-diamine] | 0.0046 nM
14 | CCCc1cc(N2CCC[C@@H](NCC3CC3)C2)nc(Nc2cc(N)cc(C(F)(F)F)c2)n1 [Example 231, (R)—N^1-{4-[3-(cyclopropylmethylamino)piperidin-1-yl]-6-propylpyrimidin-2-yl}-5-(trifluoromethyl)benzene-1,3-diamine] | 0.0063 nM
15 | CCCCc1cc(N2CCC[C@@H](NC(C)=O)C2)nc(Nc2ccc(N)c([N+](=O)[O-])c2)n1 [Example 232, (R)—N-{1-[2-(4-amino-3-nitrophenylamino)-6-butylpyrimidin-4-yl]piperidin-3-yl}acetamide] | 0.0037 nM
16 | CCCCc1cc(N2CCC[C@@H](NC(C)=O)C2)nc(Nc2ccc(C)c([N+](=O)[O-])c2)n1 [Example 233, (R)—N-{1-[6-butyl-2-(4-methyl-3-nitrophenylamino)pyrimidin-4-yl]piperidin-3-yl}acetamide] | 0.009 nM
17 | CCCCc1cc(N2CCC[C@@H](NC(C)=O)C2)nc(Nc2ccc(F)c([N+](=O)[O-])c2)n1 [Example 234, (R)—N-{1-[6-butyl-2-(4-fluoro-3-nitrophenylamino)pyrimidin-4-yl]piperidin-3-yl}acetamide] | 0.015 nM
18 | CCCCc1cc(N2CCC[C@@H](NC(C)=O)C2)nc(Nc2ccc(Cl)c([N+](=O)[O-])c2)n1 [Example 235, (R)—N-{1-[6-butyl-2-(4-chloro-3-nitrophenylamino)pyrimidin-4-yl]piperidin-3-yl}acetamide] | 0.012 nM

Row | Structure (SMILES) | EC50
19 | CCCCc1cc(N2CCC[C@@H](NC(C)=O)C2)nc(Nc2cc(N)cc(C#N)c2)n1 [Example 236, (R)—N-{1-[2-(3-amino-5-cyanophenylamino)-6-butylpyrimidin-4-yl]piperidin-3-yl}acetamide] | 0.0088 nM
20 | CCCCc1cc(N2CCC[C@@H](NC(C)=O)C2)nc(Nc2cc(N)cc(C(F)(F)F)c2)n1 [Example 237, (R)—N-{1-[2-(3-amino-5-trifluoromethylphenylamino)-6-butylpyrimidin-4-yl]piperidin-3-yl}acetamide] | 0.014 nM
21 | CCCCc1cc(N2CCC[C@@H](NC(C)=O)C2)nc(Nc2ccc(N)c(C(F)(F)F)c2)n1 [Example 238, (R)—N-{1-[2-(4-amino-3-trifluoromethylphenylamino)-6-butylpyrimidin-4-yl]piperidin-3-yl}acetamide] | 0.0083 nM
22 | CCCCc1cc(N2CCC[C@@H](NC(C)=O)C2)nc(Nc2ccc(F)c(C(F)(F)F)c2)n1 [Example 239, (R)—N-{1-[6-butyl-2-(4-fluoro-3-trifluoromethylphenylamino)pyrimidin-4-yl]piperidin-3-yl}acetamide] | 0.017 nM
23 | CCCCc1cc(N2CCC[C@@H](NC(C)=O)C2)nc(Nc2ccc(F)c(C#N)c2)n1 [Example 240, (R)—N-{1-[6-butyl-2-(3-cyano-4-fluorophenylamino)pyrimidin-4-yl]piperidin-3-yl}acetamide] | 0.012 nM
24 | CCCCc1cc(N2CCC[C@@H](NC(C)=O)C2)nc(Nc2ccc(F)c(N)c2)n1 [Example 241, (R)—N-{1-[2-(3-amino-4-fluorophenylamino)-6-butylpyrimidin-4-yl]piperidin-3-yl}acetamide] | 0.014 nM
25 | CCCCc1cc(N2CCC[C@@H](NC(C)=O)C2)nc(Nc2ccc(Cl)c(N)c2)n1 [Example 242, (R)—N-{1-[2-(3-amino-4-chlorophenylamino)-6-butylpyrimidin-4-yl]piperidin-3-yl}acetamide] | 0.0091 nM
26 | CCCCc1cc(N2CCC[C@@H](NC(C)=O)C2)nc(Nc2ccc(N)c(C#N)c2)n1 [Example 243, (R)—N-{1-[2-(4-amino-3-cyanophenylamino)-6-butylpyrimidin-4-yl]piperidin-3-yl}acetamide] | 0.0094 nM
27 | CCCc1cc(N2CCC[C@@H](NC(=O)CO)C2)nc(Nc2ccc(C)c(C#N)c2)n1 [Example 244, (R)—N-{1-[2-(3-cyano-4-methylphenylamino)-6-propylpyrimidin-4-yl]piperidin-3-yl}-2-hydroxyacetamide] | 0.02 nM
28 | CCCc1cc(N2CCC[C@@H](NC(=O)CO)C2)nc(Nc2cccc(C#N)c2)n1 [Example 245, (R)—N-{1-[2-(3-cyanophenylamino)-6-propylpyrimidin-4-yl]piperidin-3-yl}-2-hydroxyacetamide] | 0.047 nM
29 | CCCc1cc(N2CCC[C@@H](NC(=O)CO)C2)nc(Nc2ccc(F)c(C#N)c2)n1 [Example 246, (R)—N-{1-[2-(3-cyano-4-fluorophenylamino)-6-propylpyrimidin-4-yl]piperidin-3-yl}-2-hydroxyacetamide] | 0.06 nM
30 | CCCc1cc(N2CCC[C@@H](NC(=O)CO)C2)nc(Nc2cc(N)cc(C(F)(F)F)c2)n1 [Example 247, (R)—N-(1-{2-[3-amino-5-(trifluoromethyl)phenylamino]-6-propylpyrimidin-4-yl}piperidin-3-yl)-2-hydroxyacetamide] | 0.023 nM
31 | CCCc1cc(N2CCC[C@@H](NC(=O)CO)C2)nc(Nc2ccc(N)c(C(F)(F)F)c2)n1 [Example 248, (R)—N-(1-{2-[4-amino-3-(trifluoromethyl)phenylamino]-6-propylpyrimidin-4-yl}piperidin-3-yl)-2-hydroxyacetamide] | 0.018 nM
32 | CCCc1cc(N2CCC[C@@H](NC(=O)CO)C2)nc(Nc2ccc(F)c(C(F)(F)F)c2)n1 [Example 249, (R)—N-(1-{2-[4-fluoro-3-(trifluoromethyl)phenylamino]-6-propylpyrimidin-4-yl}piperidin-3-yl)-2-hydroxyacetamide] | 0.025 nM
33 | CCCc1cc(N2CCC[C@@H](NC(=O)CO)C2)nc(Nc2ccc(F)c(N)c2)n1 [Example 250, (R)—N-{1-[2-(3-amino-4-fluorophenylamino)-6-propylpyrimidin-4-yl]piperidin-3-yl}-2-hydroxyacetamide] | 0.027 nM
34 | CCCc1cc(N2CCC[C@@H](NC(=O)CO)C2)nc(Nc2ccc(Cl)c(N)c2)n1 [Example 251, (R)—N-{1-[2-(3-amino-4-chlorophenylamino)-6-propylpyrimidin-4-yl]piperidin-3-yl}-2-hydroxyacetamide] | 0.016 nM
35 | CCCc1cc(N2CCC[C@@H](NC(=O)CO)C2)nc(Nc2ccc(C)c(N)c2)n1 [Example 252, (R)—N-{1-[2-(3-amino-4-methylphenylamino)-6-propylpyrimidin-4-yl]piperidin-3-yl}-2-hydroxyacetamide] | 0.094 nM
36 | CCCc1cc(N2CCC[C@@H](NC(=O)CO)C2)nc(Nc2ccc(C)c(Cl)c2)n1 [Example 253, (R)—N-{1-[2-(3-chloro-4-methylphenylamino)-6-propylpyrimidin-4-yl]piperidin-3-yl}-2-hydroxyacetamide] | 0.057 nM
